Results published in US8673942B2, “Fused ring compounds and use thereof” (Takeda Pharmaceutical Company Limited, priority 2008, dated 2014).

Tests used:
[1] = molecular target: T1, human liver GK (GST-hLGK1) (Homo sapiens, UniProt P35557); assay: Measurement of GK activation value; assay type: biochemical; conditions: GST-hLGK1 6 μg/mL, 5 mmol/L D-glucose, 50 μmol/L Mant-ATP, 60 min at 37° C.; concentration at midpoint between maximum activity value and control activity value
T1 construct: with a BamHI site added to immediately before the initiation codon; made in house; host or cells: Escherichia coli BL21 (Stratagene), plasmid pGEX6P-2/hLGK1
T1 sequence (P35557 1-464 isoform P35557-3): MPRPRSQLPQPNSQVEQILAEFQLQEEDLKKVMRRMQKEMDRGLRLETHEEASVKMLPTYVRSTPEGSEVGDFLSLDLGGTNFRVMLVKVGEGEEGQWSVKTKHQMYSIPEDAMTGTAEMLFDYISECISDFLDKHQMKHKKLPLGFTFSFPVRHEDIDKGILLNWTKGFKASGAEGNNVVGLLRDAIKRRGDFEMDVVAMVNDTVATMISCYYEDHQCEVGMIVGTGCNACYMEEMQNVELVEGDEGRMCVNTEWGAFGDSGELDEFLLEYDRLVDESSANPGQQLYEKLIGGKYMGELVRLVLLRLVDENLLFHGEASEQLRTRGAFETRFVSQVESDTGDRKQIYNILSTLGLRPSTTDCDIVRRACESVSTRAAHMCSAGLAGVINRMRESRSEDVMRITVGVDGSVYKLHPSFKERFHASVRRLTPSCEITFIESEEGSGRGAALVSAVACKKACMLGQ
Method: GK enzyme reactions were performed in 50 mmol/L HEPES pH 7.4, 200 mmol/L KCl, 5 mmol/L MgCl2, 2 mmol/L DTT, containing 50 μmol/L 2′-(or -3′)-O—(N-methylanthraniloyl)adenosine 5′-triphosphate (Mant-ATP) (Jena Bioscience GmbH), 5 mmol/L D-glucose, 5% DMSO and 6 μg/mL GST-hLGK1 obtained in Reference Example 2A in a total volume 50 μL. The reactions were performed in 384 well black plates (Nalge Nunc International K.K.). Prior to the reaction, the enzyme and test compound were incubated for 10 min at 37° C., and 25 mM D-glucose solution (10 μL) was added to start the reaction.
After the incubation for 60 min at 37° C., the reaction was quenched by adding 25 μL of a quenching solution (containing 200 mM HEPES (pH 7.4), 20 mM MgCl2, 200 mM EDTA, 0.03% Triton-X 100, 0.3% Coating 3 reagent (Caliper Life Sciences, Inc.)).
Mant-ATP (substrate, 2′- (or -3′)-O—(N-methylanthraniloyl) adenosine 5′-triphosphate) and Mant-ADP (reaction resultant product) were separated from each well after the reaction by a microchip type capillary electrophoresis apparatus 250 HTS (Caliper Life Sciences, Inc.). The reaction rate [(reaction resultant product peak height)/(reaction resultant product peak height+substrate peak height)×100(%)] was calculated from the ratio of the substrate peak height and reaction resultant product peak height obtained by fluorescence detection (excitation wavelength 355 nm, measurement wavelength 460 nm) and used as the index of GK activity.
As a control group, the reaction rate was calculated in the same manner as above without the test compounds.
The percentage obtained by dividing the reaction rate of the well added with each concentration of the test compound (test compound addition group) by the reaction rate of the control group was taken as the GK activity value, and the concentration of the test compound at the midpoint between the maximum activity value of the test compound addition group and the control group activity value is shown as EC50 value.

Structure (SMILES)	melting point	EC50 [1]
CNC(=O)CC1CN=C(c2cc3cc(Oc4ccc(S(C)(=O)=O)nc4)cc(OC)c3[nH]2)S1 (single isomer, unassigned) [Example 31, 2-[2-(7-Methoxy-5-{[6-(methylsulfonyl)pyridin-3-yl]oxy}-1H-indol-2-yl)-4,5-dihydro-1,3-thiazol-5-yl]-N-methylacetamide]	196 to 197 °C	28 nM
COCC(C)Oc1cc(Oc2ccc(S(C)(=O)=O)cc2)cc2cc(C3=NCC(CCO)S3)[nH]c12 (single isomer, unassigned) [Example 57, 2-(2-{7-(2-Methoxy-1-methylethoxy)-5-[4-(methylsulfonyl)phenoxy]-1H-indol-2-yl}-4,5-dihydro-1,3-thiazol-5-yl)ethanol]	–	17 nM
COCC(C)Oc1cc(Oc2ccc(S(C)(=O)=O)cc2)cc2cc(C3=NCC(CCO)S3)[nH]c12 (single isomer, unassigned) [Example 58, 2-(2-{7-(2-Methoxy-1-methylethoxy)-5-[4-(methylsulfonyl)phenoxy]-1H-indol-2-yl}-4,5-dihydro-1,3-thiazol-5-yl)ethanol]	–	15 nM
CC(C)Oc1cc(Oc2ccc(S(C)(=O)=O)cn2)cc2cc(C3=NCC(CC(C)(C)O)S3)[nH]c12 (single isomer, unassigned) [Example 65, 2-Methyl-1-{2-[7-(1-methylethoxy)-5-{[5-(methylsulfonyl)pyridin-2-yl]oxy}-1H-indol-2-yl]-4,5-dihydro-1,3-thiazol-5-yl}propan-2-ol]	–	59 nM
COc1cc(Oc2ccc(S(C)(=O)=O)nc2)cc2cc(C3=NCC(CC(=O)NCC(C)(C)O)S3)[nH]c12 (single isomer, unassigned) [Example 74]	173 to 174 °C	28 nM
CCOc1cc(Oc2ccc(S(C)(=O)=O)nc2)cc2cc(C3=NCC(CC(=O)NC)S3)[nH]c12 (single isomer, unassigned) [Example 98, 2-[2-(7-Ethoxy-5-{[6-(methylsulfonyl)pyridin-3-yl]oxy}-1H-indol-2-yl)-4,5-dihydro-1,3-thiazol-5-yl]-N-methylacetamide]	–	20 nM
CS(=O)(=O)c1ccc(Oc2cc(OCc3ccccc3)c3[nH]c(C4=NCC(CC(=O)O)S4)cc3c2)cc1 (stereo not drawn) [Example 3, (2-{7-(Benzyloxy)-5-[4-(methylsulfonyl)phenoxy]-1H-indol-2-yl}-4,5-dihydro-1,3-thiazol-5-yl)acetic acid]	218 to 219 °C	55 nM
CS(=O)(=O)c1ccc(Oc2cc(OCc3cccc(Cl)n3)c3[nH]c(C4=NCC(CC(=O)O)S4)cc3c2)cc1 (stereo not drawn) [Example 7, (2-{7-[(6-Chloropyridin-2-yl)methoxy]-5-[4-(methylsulfonyl)phenoxy]-1H-indol-2-yl}-4,5-dihydro-1,3-thiazol-5-yl)acetic acid]	175 to 176 °C	42 nM
Cn1ccnc1COc1cc(Oc2ccc(S(C)(=O)=O)cc2)cc2cc(C3=NCC(CC(N)=O)S3)[nH]c12 (stereo not drawn) [Example 11, 2-(2-{7-[(1-Methyl-1H-imidazol-2-yl)methoxy]-5-[4-(methylsulfonyl)phenoxy]-1H-indol-2-yl}-4,5-dihydro-1,3-thiazol-5-yl)acetamide]	130 to 131 °C	52 nM
CC(CO)Oc1cc(Oc2ccc(S(C)(=O)=O)cc2)cc2cc(C3=NCC(CCO)S3)[nH]c12 (stereo not drawn) [Example 16, 2-({2-[5-(2-Hydroxyethyl)-4,5-dihydro-1,3-thiazol-2-yl]-5-[4-(methylsulfonyl)phenoxy]-1H-indole-7-yl}oxy)propan-1-ol]	165 to 169 °C	33 nM
CC(CO)Oc1cc(Oc2ccc(S(C)(=O)=O)cc2)cc2cc(C3=NCC(CC(N)=O)S3)[nH]c12 (stereo not drawn) [Example 17, 2-(2-{7-(2-Hydroxy-1-methylethoxy)-5-[4-(methylsulfonyl)phenoxy]-1H-indol-2-yl}-4,5-dihydro-1,3-thiazol-5-yl)acetamide]	137 to 142 °C	48 nM
CS(=O)(=O)c1ccc(Oc2cc(OCC3CCOCC3)c3[nH]c(C4=NCC(CCO)S4)cc3c2)cc1 (stereo not drawn) [Example 19, 2-(2-{5-[4-(Methylsulfonyl)phenoxy]-7-(tetrahydro-2H-pyran-4-ylmethoxy)-1H-indol-2-yl}-4,5-dihydro-1,3-thiazol-5-yl)ethanol]	104 to 105 °C	44 nM
COCCNC(=O)CC1CN=C(c2cc3cc(Oc4ccc(S(C)(=O)=O)nc4)cc(OC)c3[nH]2)S1 (stereo not drawn) [Example 78, N-(2-Methoxyethyl)-2-[2-(7-methoxy-5-{[6-(methylsulfonyl)pyridin-3-yl]oxy}-1H-indol-2-yl)-4,5-dihydro-1,3-thiazol-5-yl]acetamide]	175 to 176 °C	37 nM
COc1cc(Oc2ccc(S(C)(=O)=O)nc2)cc2cc(C3=NCC(CC(=O)N(C)C)S3)[nH]c12 (stereo not drawn) [Example 79, 2-[2-(7-Methoxy-5-{[6-(methylsulfonyl)pyridin-3-yl]oxy}-1H-indol-2-yl)-4,5-dihydro-1,3-thiazol-5-yl]-N,N-dimethylacetamide]	206 to 207 °C	35 nM
COc1cc(Oc2ccc(S(C)(=O)=O)nc2)cc2cc(C3=NCC(CC(=O)NC[C@H](C)O)S3)[nH]c12 (stereo partly drawn) [Example 80, N-[(2S)-2-Hydroxypropyl]-2-[2-(7-methoxy-5-{[6-(methylsulfonyl)pyridin-3-yl]oxy}-1H-indol-2-yl)-4,5-dihydro-1,3-thiazol-5-yl]acetamide]	185 to 186 °C	37 nM
COc1cc(Oc2ccc(S(C)(=O)=O)nc2)cc2cc(C3=NCC(CC(=O)NC[C@@H](C)O)S3)[nH]c12 (stereo partly drawn) [Example 81, N-[(2R)-2-Hydroxypropyl]-2-[2-(7-methoxy-5-{[6-(methylsulfonyl)pyridin-3-yl]oxy}-1H-indol-2-yl)-4,5-dihydro-1,3-thiazol-5-yl]acetamide]	185 to 186 °C	38 nM
COc1cc(Oc2ccc(S(C)(=O)=O)nc2)cc2cc(C3=NCC(CC(=O)N4CCOCC4)S3)[nH]c12 (stereo not drawn) [Example 82, 7-Methoxy-5-{[6-(methylsulfonyl)pyridin-3-yl]oxy}-2-{5-[2-(morpholin-4-yl)-2-oxoethyl]-4,5-dihydro-1,3-thiazol-2-yl}-1H-indole]	148 to 149 °C	42 nM
